Several values for one entry are separate records, joined by “and”; a condition that tells them apart may be missing. Equal entries are not always repeated.
Experiments:
[1] = test system: OAT3; test: OAT3 protein expression in HK-2 cells (Western blot); details: HK-2; 阳性 = allopurinol 100 µmol/L; replicates 1-3
[2] = test system: XOD; details: HUA cell model; allopurinol 100 μmol/L; vs model; p < 0.001
[3] = test system: OAT3; test: OAT3 protein expression in kidney of HUA mice (Western blot); details: allopurinol 10 mg/kg, p > 0.05
[4] = test system: GLUT9; test: GLUT9 protein expression in HK-2 cells (Western blot); details: HK-2; 阳性 = allopurinol 100 µmol/L; replicates 1-3
[5] = test system: ASC; test: ASC protein expression in HK-2 cells (Western blot); details: HK-2; 阳性 = allopurinol 100 µmol/L; replicates 1-3
[6] = test system: OAT1; test: OAT1 protein expression in HK-2 cells (Western blot); details: HK-2; 阳性 = allopurinol 100 µmol/L; replicates 1-3
[7] = test system: GLUT9; test: GLUT9 protein expression in kidney of HUA mice (Western blot); format: in vivo; details: allopurinol 10 mg/kg, p > 0.05
[8] = test system: Caspase-1; test: Caspase-1 protein expression in HK-2 cells (Western blot); details: HK-2; 阳性 = allopurinol 100 µmol/L; replicates 1-3
[9] = test system: XOD
[10] = test system: OAT1; test: OAT1 protein expression in kidney of HUA mice (Western blot); details: allopurinol 10 mg/kg, p > 0.05
[11] = Pharmacokinetics in rats (LC-MS/MS, WinNonlin); details: for MRT inf: MRT(0-∞); for Cmax: C max; for Tmax: T max
Method: Whole blood was taken into heparinized tubes at predefined time points (2, 5, 10, 20, and 30 min, and 1, 2, 4, 6, 8, and 12 h) after administration, and plasma was separated by centrifugation and stored at −20°C until testing. […] Whole blood was taken into heparinized tubes at predefined time points (2, 5, 10, 20, and 30 min, and 1, 2, 4, 6, 8, and 12 h) after administration, and plasma was separated by centrifugation and stored at −20°C until testing. […] Pharmacokinetic parameters were calculated by using the pharmacokinetics software WinNonlin 8.1.

[12] = test system: NLRP3; test: NLRP3 protein expression in HK-2 cells (Western blot); details: HK-2; 阳性 = allopurinol 100 µmol/L; replicates 1-3
[13] = Sprague-Dawley, rat, plasma, iv, 5 mg/kg, rats, allopurinol intravenous 5 mg/kg, Average
[14] = Sprague-Dawley, rat, plasma, iv, 5 mg/kg, rats, allopurinol intravenous 5 mg/kg, individual rats
[15] = Sprague-Dawley, rat, plasma, po, 50 mg/kg, rats, allopurinol gavage 50 mg/kg, Average
[16] = Sprague-Dawley, rat, plasma, po, 50 mg/kg, rats, allopurinol gavage 50 mg/kg, individual rats
[17] = rats, allopurinol gavage 50 mg/kg, individual rats, 50 mg/kg
[18] = rats, allopurinol intravenous 5 mg/kg, individual rats, 5 mg/kg

## Oc1ncnc2[nH]ncc12 [allopurinol]
[1]
  OAT3 protein expression, band value: 160.43 and 183.946
[2]
  XOD activity in AML12 cells: significantly downregulate
[3]
  OAT3 protein expression in kidney: did not show significant effects
[4]
  GLUT (GLUT9) protein expression, band value: 146.392 and 138.006 and 144.372
[5]
  asc protein expression, band value: 163.648 and 185.065 and 186.261
[6]
  OAT1 protein expression, band value: 174.983 and 217.222 and 169.712
[7]
  GLUT9 protein expression in kidney: did not show significant effects
[8]
  CASPASE protein expression, band value: 147.442 and 190.729 and 189.372
[9]; AML12, 阳性 = allopurinol 100 µmol/L, replicates 1-3
  xod protein expression, band value: 155.965 and 209.523 and 140.271
[9]; HUA cell model, allopurinol 100 µmol/L, vs model group
  XOD protein expression in AML12 cells: significantly downregulate
[10]
  OAT1 protein expression in kidney: did not show significant effects
[11]; Sprague-Dawley, rat, plasma, iv, 5 mg/kg, AUC(0-t), rats, allopurinol intravenous 5 mg/kg, Average
  AUC(0-t): 179 ng·h/mL
[11]; [13]
  AUC(0-inf): 209 ng·h/mL
  MRT inf: 0.79 h
[11]; [14]
  AUC(0-inf): 170 ng·h/mL
  MRT inf: 0.73 h
[11]; Sprague-Dawley, rat, plasma, iv, 5 mg/kg, C 0, rats, allopurinol intravenous 5 mg/kg, Average
  C0: ~225 ng/mL
[11]; Sprague-Dawley, rat, plasma, iv, 5 mg/kg, C 0, rats, allopurinol intravenous 5 mg/kg, individual rats
  C0: 169 ng/mL
[11]; Sprague-Dawley, rat, plasma, oral, F (absolute bioavailability), rats, allopurinol gavage 50 mg/kg vs intravenous 5 mg/kg
  bioavailability: ~314%
[11]; Sprague-Dawley, rat, plasma, po, 50 mg/kg, AUC(0-t), rats, allopurinol gavage 50 mg/kg, Average
  AUC(0-t): 6470 ng·h/mL
[11]; Sprague-Dawley, rat, plasma, po, 50 mg/kg, AUC(0-t), rats, allopurinol gavage 50 mg/kg, individual rats
  AUC(0-t): 6290 ng·h/mL
[11]; [15]
  AUC(0-inf): ~6580 ng·h/mL
  Cmax: ~1350 ng/mL
  MRT inf: 2.5 h
  Tmax: 1 to 2 h
[11]; [16]
  AUC(0-inf): 6430 ng·h/mL
  Cmax: 1310 ng/mL
  MRT inf: 2.06 h
  Tmax: 2 h
[11]; rats, allopurinol gavage 50 mg/kg, Average
  V/F: 14.28 L/kg
[11]; rats, allopurinol gavage 50 mg/kg, Average, 50 mg/kg
  T max: 1.33 h
[11]; [17]
  AUC(0-t): 6,239.00 h·µg/L and 6,870.26 h·µg/L
  AUC(0-∞): 6,374.71 h·µg/L and 6,922.57 h·µg/L
  C max: 1,440.00 µg/L and 1,310.00 µg/L
  MRT(0-∞): 2.68 h and 2.75 h
  V/F: 15.75 L/kg and 15.77 L/kg and 11.31 L/kg
[11]; rats, allopurinol intravenous 5 mg/kg, Average
  V: 19.62 L/kg
[11]; [18]
  AUC(0-t): 186.21 ng·h/mL and 225.15 ng·h/mL
  AUC(0-∞): 207.21 µg·h/L and 250.23 µg·h/L
  C0: 223.22 ng/mL and 281.70 ng/mL
  MRT(0-∞): 0.81 h and 0.83 h
  V: 20.68 L/kg and 20.60 L/kg and 17.58 L/kg
[12]
  NLRP3 protein expression, band value: 163.939 and 177.621 and 186.105

Reference: publication PMC12339328, “Therapeutic effect and mechanism of gigantol on hyperuricemia” (Frontiers in Endocrinology, 2025)
